We go through 20 compounds from patent US6004950A, “2-aminopyridines as inhibitors of cyclooxygenase-2” (Merck Frosst Canada, Inc., priority 1998, dated 1999).

The target of one assay is COX-1 (Homo sapiens, UniProt P23219). The assay can be described thus: Assay of COX-1 activity from U937 cell microsomes. The assay is classed as biochemical. More on the design: Assay of COX-1 Activity from U937 cell microsomes; endogenous in cells; host or cells: U937 cells, 100,000×g microsomal pellet. Here is the method: Assay of COX-1 Activity from U937 cell microsomes
COX-1, sequence (P23219 24-599): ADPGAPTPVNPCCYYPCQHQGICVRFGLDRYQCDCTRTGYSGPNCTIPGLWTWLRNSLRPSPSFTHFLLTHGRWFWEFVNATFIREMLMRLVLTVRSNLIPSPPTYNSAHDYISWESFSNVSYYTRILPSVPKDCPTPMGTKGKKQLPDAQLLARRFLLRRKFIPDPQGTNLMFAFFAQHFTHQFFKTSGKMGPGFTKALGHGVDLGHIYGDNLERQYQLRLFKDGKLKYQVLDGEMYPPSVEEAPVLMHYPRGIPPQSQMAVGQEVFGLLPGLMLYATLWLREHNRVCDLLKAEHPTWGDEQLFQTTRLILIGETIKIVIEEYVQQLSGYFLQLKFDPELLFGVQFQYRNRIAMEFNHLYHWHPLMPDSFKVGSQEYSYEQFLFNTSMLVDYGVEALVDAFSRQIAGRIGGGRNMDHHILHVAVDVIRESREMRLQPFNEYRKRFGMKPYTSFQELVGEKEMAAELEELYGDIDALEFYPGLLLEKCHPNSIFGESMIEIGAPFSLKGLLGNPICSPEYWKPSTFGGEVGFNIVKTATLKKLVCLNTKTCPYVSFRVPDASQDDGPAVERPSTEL
U 937 cells are pelleted by centrifugation at 500×g for 5 min and washed once with phosphate-buffered saline and repelleted. Cells are resuspended in homogenization buffer consisting of 0.1 M Tris-HCl, pH 7.4, 10 mM EDTA, 2 μg/ml leupeptin, 2 μg/ml soybean trypsin inhibitor, 2 μg/ml aprotinin and 1 mM phenyl methyl sulfonyl fluoride. The cell suspension is sonicated 4 times for 10 sec and is centrifuged at 10,000×g for 10 min at 4° C. The supernatant is centrifuged at 100,000×g for 1 hr at 4° C. The 100,000×g microsomal pellet is resuspended in 0.1 M Tris-HCl, pH 7.4, 10 mM EDTA to approximately 7 mg protein/ml and stored at -80° C.
Microsomal preparations are thawed immediately prior to use, subjected to a brief sonication, and then diluted to a protein concentration of 125 μg/ml in 0.1 M Tris-HCl buffer, pH 7.4 containing 10 mM EDTA, 0.5 mM phenol, 1 mM reduced glutathione and 1 μM hematin. Assays are performed in duplicate in a final volume of 250 μl. Initially, 5 μl of DMSO vehicle or drug in DMSO are added to 20 μl of 0.1 M Tris-HCl buffer, pH 7.4 containing 10 mM EDTA in wells of a 96-deepwell polypropylene titre plate. 200 μl of the microsomal preparation are then added and pre-incubated for 15 min at room temperature before addition of 25 μl of […] arachidonic acid in […] Tris-HCl and 10 mM EDTA, pH 7.4. Samples are incubated for 40 min at room temperature and the reaction is stopped by the addition of 25 μl of 1 N HCl. Samples are neutralized with 25 μl of 1 N NaOH prior to quantitation of PGE2 content by radioimmunoassay (Dupont-NEN or Amersham assay kits). Cyclooxygenase activity is defined as the difference between PGE2 levels in samples incubated in the presence of arachidonic acid and ethanol vehicle.
In the assay, inhibition is determined by measuring the amount of prostaglandin E2 (PGE2) synthesized in the presence of arachidonic acid, cyclooxygenase-1 or cyclooxygenase-2 and a putative inhibitor.

In assay [1] the target is T1, COX-2 (Homo sapiens, UniProt P35354).
T1 construct: incubation of human whole blood with LPS, which induces COX-2; endogenous in cells; host or cells: heparinized fresh whole blood of human volunteers, incubated with LPS for 24 h
T1 sequence (P35354 18-604): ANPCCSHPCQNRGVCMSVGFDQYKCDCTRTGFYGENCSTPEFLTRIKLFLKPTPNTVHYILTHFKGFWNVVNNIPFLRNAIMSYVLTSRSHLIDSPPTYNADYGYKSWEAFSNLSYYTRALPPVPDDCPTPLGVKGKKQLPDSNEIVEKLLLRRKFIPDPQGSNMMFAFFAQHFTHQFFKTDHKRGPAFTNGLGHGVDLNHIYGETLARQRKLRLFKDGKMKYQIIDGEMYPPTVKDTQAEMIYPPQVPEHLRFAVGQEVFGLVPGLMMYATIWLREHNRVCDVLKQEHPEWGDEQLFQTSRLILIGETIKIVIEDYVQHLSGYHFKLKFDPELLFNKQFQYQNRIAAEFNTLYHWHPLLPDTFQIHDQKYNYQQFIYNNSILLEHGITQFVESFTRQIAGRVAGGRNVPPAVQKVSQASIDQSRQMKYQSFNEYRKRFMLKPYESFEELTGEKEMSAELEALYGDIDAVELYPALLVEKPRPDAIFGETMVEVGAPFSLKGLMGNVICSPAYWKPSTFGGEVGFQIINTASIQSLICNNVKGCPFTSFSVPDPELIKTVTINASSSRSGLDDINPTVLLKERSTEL
Nature of the assay: Human whole blood assay, COX-2 (LPS-induced PGE2 production). The assay is classed as cell-based. The text has this: As well, platelets in whole blood contain a large amount of the COX-1 enzyme. Immediately following blood clotting, platelets are activated through a thrombin-mediated mechanism. This reaction results in the production of thromboxane B2 (TxB2) via activation of COX-1. Thus, the effect of test compounds on TxB2 levels following blood clotting can be examined and used as an index for COX-1 activity. Therefore, the degree of selectivity by the test compound can be determined by measuring the levels of PGE2 after LPS induction (COX-2) and TxB2 following blood clotting (COX-1) in the same assay.
A. COX-2 (LPS-induced PGE2 production)
Fresh blood is collected in heparinized tubes by venipuncture from both male and female volunteers. The subjects have no apparent inflammatory conditions and have not taken any NSAIDs for at least 7 days prior to blood collection. Plasma is immediately obtained from a 2 mL blood aliquot to use as blank (basal levels of PGE2).

Assay [2] deals with T1, COX-2. Nature of the assay: Whole cell assay for COX-2 using CHO transfected cell line CHO[hCOX-2], inhibition of PGE2 synthesis. The assay is classed as cell-based.
Description: Whole cell assays for COX-2 and COX-1 using CHO transfected cell lines
Chinese hamster ovary (CHO) cell lines which have been stably transfected with an eukaryotic expression vector pCDNAIII containing either the human COX-1 or COX-2 cDNA's are used for the assay. These cell lines are referred to as CHO [hCOX-1] and CHO [hCOX-2], respectively. For cyclooxygenase assays, CHO[hCOX-1] cells from suspension cultures and CHO[hCOX-2] cells prepared by trypsinization of adherent cultures are harvested by centrifugation (300×g, 10 min) and washed once in HBSS containing 15 mM HEPES, pH 7.4, and resuspended in HBSS, 15 mM HEPES, pH 7.4, at a cell concentration of 1.5×10^6 cells/ml. Drugs to be tested are dissolved in DMSO to 66.7-fold the highest test drug concentration. […] Cells (0.3×10^6 cells in 200 μl) are preincubated with 3 μl of the test drug or DMSO vehicle for 15 min at 37° C. Working solutions of peroxide-free AA (5.5 μM and 110 μM AA for the CHO [hCOX-1] and CHO [COX-2] assays, respectively) are prepared by a 10-fold dilution of a concentrated AA solution in ethanol into HBSS containing 15 mM HEPES, pH 7.4. Cells are then challenged in the presence or absence of drug with the AA/HBSS solution to yield a final concentration of 0.5 μM AA in the CHO[hCOX-1] assay and a final concentration of 10 μM AA in the CHO[hCOX-2] assay. The reaction is terminated by the addition of 10 μl 1 N HCl followed by neutralization with 20 μl of 0.5 N NaOH. The samples are centrifuged at 300×g at 4° C. for 10 min, and an aliquot of the clarified supernatant is appropriately diluted for the determination of PGE2 levels using an enzyme-linked immunoassay for PGE2 (Correlate PGE2 enzyme immunoassay kit, Assay Designs, Inc.). Cyclooxygenase activity in the absence of test compounds is determined as the difference in PGE2 levels of cells challenged with arachidonic acid versus the PGE2 levels in cells mock-challenged with ethanol vehicle. Inhibition of PGE2 synthesis by test compounds is calculated as a percentage of the activity in the presence of drug versus the activity in the positive control samples.
The mark [3] stands for this setting: U937 cell microsomes, PGE2, read-out: COX-1 (IC50 mM) U-937.
[4] abbreviates: human whole blood, LPS-induced PGE2, 24 h, read-out: COX-2 (IC50 mM) HWB.
The mark [5] stands for this setting: CHO[hCOX-2] cells, 10 μM AA, PGE2, read-out: COX-2 (IC50 mM) CHO.

Where two headings read alike, the source gives them in different places.

Usually IC50 stands for the concentration needed to halve the response being measured. Take `CS(=O)(=O)c1ccc(-c2cc(C(F)(F)F)cnc2N2CCC[C@H](CO)C2)cc1` (single isomer, unassigned) [Example 14, (-)-3-(4-Methylsulfonyl)phenyl-2-(3-hydroxymethyl)piperidin-1-yl-5-trifluoromethylpyridine]: the results for the IC50 on COX-1 (setting [3]), against COX-2 [1] and against COX-2 [2] were 0.003 to 0.01 mM, 0.0005 mM and 0.03 µM, respectively.

As to `CS(=O)(=O)c1ccc(-c2cc(C(F)(F)F)cnc2N2CCC[C@@H](CO)C2)cc1` (single isomer, unassigned) [Example 15, (+)-3-(4-Methylsulfonyl)phenyl-2-(3-hydroxymethyl)piperidin-1-yl-5-trifluoromethylpyridine], the values for the half-inhibitory concentration (IC50) on COX-1 (setting [3]), against COX-2 [1] and against COX-2 [2] were greater than 0.01 mM, 0.0266 mM and 0.03 µM, respectively.

With `CS(=O)(=O)c1ccc(-c2cc(C(F)(F)F)cnc2N2CCCC2)cc1` [Example 1, 3-(4-Methylsulfonyl)phenyl-2-pyrrolidin-1-yl-5-trifluoromethylpyridine], the concentration for half-maximal inhibition (IC50) against COX-1 was greater than 0.01 mM; on COX-2 [1], 0.0097 mM; on COX-2 [2], 0.02 µM.

For `CS(=O)(=O)c1ccc(-c2cc(Cl)cnc2N2CCCCC2)cc1` [Example 3, 5-Chloro-3-(4-methylsulfonyl)phenyl-2-piperidin-1-ylpyridine], the concentration for half-maximal inhibition (IC50) on COX-1 (setting [3]) lay in the range of 0.001 to 0.003 mM.

Turning to `CS(=O)(=O)c1ccc(-c2cccnc2N2CCCCC2)cc1` [Example 4, 3-(4-Methylsulfonyl)phenyl-2-piperidin-1-ylpyridine], the results for the 50% inhibitory concentration (IC50) at COX-1 (setting [3]), on COX-2 [1] (setting [4]) and on COX-2 [2] (setting [5]) were greater than 0.05 mM, 0.006 mM and 0.13 µM, respectively.

With `CS(=O)(=O)c1ccc(-c2cc(C(F)(F)F)cnc2N2CC=CCC2)cc1` [Example 5, 3-(4-Methylsulfonyl)phenyl-2-(1,2,3,6-tetrahydropyridinyl)-5-trifluoromethylpyridine], the results for the IC50 at COX-1 (setting [3]), at COX-2 [1] (setting [4]) and at COX-2 [2] (setting [5]) were 0.001 to 0.003 mM, 0.001 mM and 0.002 µM, respectively.

Turning to `CS(=O)(=O)c1ccc(-c2cc(C(F)(F)F)cnc2N2CCCCCC2)cc1` [Example 6, 2-(Homopiperidin-1-yl)-3-(4-methylsulfonyl)phenyl-5-trifluoromethylpyridine], the figures for the 50% inhibitory concentration (IC50) at COX-1 (setting [3]), at COX-2 [1] (setting [4]) and at COX-2 [2] (setting [5]) were 0.01 mM, 0.006 mM and 0.004 µM, respectively.

For `CS(=O)(=O)c1ccc(-c2cc(C(F)(F)F)cnc2N2CCC[C@H]2CO)cc1` [Example 7, 3-(4-Methylsulfonyl)phenyl-2-((2S)-2-hydroxymethyl)pyrrolidin-1-yl-5-trifluoromethylpyridine], the IC50 on COX-1 (setting [3]) is 0.003 to 0.01 mM; on COX-2 [1] (setting [4]), 0.0002 mM; at COX-2 [2] (setting [5]) it was 0.04 µM.

On to `CS(=O)(=O)c1ccc(-c2cc(C(F)(F)F)cnc2N2CCC[C@@H]2CO)cc1` [Example 8, 3-(4-Methylsulfonyl)phenyl-2-((2R)-2-hydroxymethyl)pyrrolidin-1-yl-5-trifluoromethylpyridine], for which the IC50 at COX-1 (setting [3]) was greater than 0.01 mM; at COX-2 [1] (setting [4]) it was greater than 0.033 mM; on COX-2 [2] (setting [5]), greater than 5 µM.

For the compound `CS(=O)(=O)c1ccc(-c2cc(Cl)cnc2N2CCC[C@H]2CO)cc1` [Example 9, 5-Chloro-3-(4-methylsulfonyl)phenyl-2-((2S)-2-hydroxymethyl)pyrrolidin-1-ylpyridine], the IC50 was 0.001 to 0.003 mM at COX-1 (setting [3]), 0.0001 mM on COX-2 [1] (setting [4]) and 0.03 µM on COX-2 [2] (setting [5]).

For the compound `COC[C@@H]1CCCN1c1ncc(C(F)(F)F)cc1-c1ccc(S(C)(=O)=O)cc1` [Example 10, 3-(4-Methylsulfonyl)phenyl-2-((2S)-2-methoxymethyl)pyrrolidin-1-yl-5-trifluoromethylpyridine], the IC50 was 0.003 to 0.01 mM on COX-1 (setting [3]), 0.0031 mM at COX-2 [1] (setting [4]) and 0.09 µM at COX-2 [2] (setting [5]).

As to `CC(=O)OC[C@@H]1CCCN1c1ncc(C(F)(F)F)cc1-c1ccc(S(C)(=O)=O)cc1` [Example 11, 3-(4-Methylsulfonyl)phenyl-2-((2S)-2-acetoxymethyl)pyrrolidin-1-yl-5-trifluoromethylpyridine], the figures for the IC50 at COX-1 (setting [3]), at COX-2 [1] (setting [4]) and on COX-2 [2] (setting [5]) were greater than 0.01 mM, less than 0.0004 mM and 0.07 µM, respectively.

Consider `COC[C@@H]1CCCN1c1ncc(Cl)cc1-c1ccc(S(C)(=O)=O)cc1` [Example 12, 5-Chloro-3-(4-methylsulfonyl)phenyl-2-((2S)-2-methoxymethyl)pyrrolidin-1-ylpyridine], for which, at COX-1 (setting [3]), the concentration for half-maximal inhibition (IC50) was 0.003 to 0.01 mM.

Turning to `CS(=O)(=O)c1ccc(-c2cc(C(F)(F)F)cnc2N2CCCCC2CO)cc1` (stereo not drawn) [Example 13, 3-(4-Methylsulfonyl)phenyl-2-(2-hydroxymethyl)piperidin-1-yl-5-trifluoromethylpyridine], the values for the concentration for half-maximal inhibition (IC50) at COX-1 (setting [3]), on COX-2 [1] (setting [4]) and on COX-2 [2] (setting [5]) were 0.01 mM, 0.0027 mM and 0.1 µM, respectively.

As to `CS(=O)(=O)c1ccc(-c2cc(Cl)cnc2N2CCCC(CO)C2)cc1` (stereo not drawn) [Example 16, 5-Chloro-3-(4-methylsulfonyl)phenyl-2-(3-hydroxymethyl)piperidin-1-ylpyridine], the 50% inhibitory concentration (IC50) at COX-1 (setting [3]) is greater than 0.01 mM.

In the case of `CC1(CO)CCCN(c2ncc(C(F)(F)F)cc2-c2ccc(S(C)(=O)=O)cc2)C1` (stereo not drawn) [Example 17, 3-(4-Methylsulfonyl)phenyl-2-(3-hydroxymethyl-3-methyl)piperidin-1-yl-5-trifluoromethylpyridine], the IC50 on COX-1 (setting [3]) was greater than 0.01 mM; on COX-2 [1] (setting [4]), 0.0053 mM; at COX-2 [2] (setting [5]), 0.4 µM.

With `CS(=O)(=O)c1ccc(-c2cc(C(F)(F)F)cnc2N2CCCCC(CO)C2)cc1` (stereo not drawn) [Example 18, 3-(4-Methylsulfonyl)phenyl-2-(3-hydroxymethyl)homopiperidin-1-yl-5-trifluoromethylpyridine], the figures for the half-inhibitory concentration (IC50) at COX-1 (setting [3]), on COX-2 [1] (setting [4]) and at COX-2 [2] (setting [5]) were greater than 0.01 mM, 0.0234 mM and 0.08 µM, respectively.

On to `CS(=O)(=O)c1ccc(-c2cc(C(F)(F)F)cnc2N2CCCCC2CCO)cc1` (stereo not drawn) [Example 19, 3-(4-Methylsulfonyl)phenyl-2-(2-(2-hydroxyethyl))piperidin-1-yl-5-trifluoromethylpyridine], for which the half-inhibitory concentration (IC50) was greater than 0.01 mM at COX-1 (setting [3]), 0.0032 mM on COX-2 [1] (setting [4]) and 0.92 µM at COX-2 [2] (setting [5]).

In the case of `CS(=O)(=O)c1ccc(-c2cc(C(F)(F)F)cnc2N2CCC(=O)CC2)cc1` [Example 20, 3-(4-Methylsulfonyl)phenyl-2-(4-oxo)piperidin-1-yl-5-trifluoromethylpyridine], the half-inhibitory concentration (IC50) on COX-1 (setting [3]) is greater than 0.01 mM; at COX-2 [1] (setting [4]), 0.0104 mM; on COX-2 [2] (setting [5]), 0.09 µM.

For the compound `CS(=O)(=O)c1ccc(-c2cc(C(F)(F)F)cnc2N2CCCC(=O)C2)cc1` [Example 21, 3-(4-Methylsulfonyl)phenyl-2-(3-oxo)piperidin-1-yl-5-trifluoromethylpyridine], the IC50 is greater than 0.01 mM at COX-1 (setting [3]), 0.0053 mM on COX-2 [1] (setting [4]) and 0.11 µM at COX-2 [2] (setting [5]).
